Measured values: US11572590B2, “Methods for evaluating tumor cell spheroids using 3D microfluidic cell culture device” (Dana-Farber Cancer Institute, Inc., priority 2017, dated 2023)
Like-named read-outs stand apart in the source and are kept apart here.

How the values were obtained:
Assay in all cases: SelectScreen Kinase Profiling, single point inhibition and IC50 for off-target kinases
Type in all cases: biochemical
off-target kinases [1] = target: off-target kinases (Homo sapiens, UniProt P22694); conditions: PRKACB (PRKAC beta), LanthaScreen Binding
off-target kinases [2] = target: T1, off-target kinases (Homo sapiens, UniProt P54753); conditions: EPHB3, ZLYTE, ATP Km app
T1 sequence (P54753 34-998): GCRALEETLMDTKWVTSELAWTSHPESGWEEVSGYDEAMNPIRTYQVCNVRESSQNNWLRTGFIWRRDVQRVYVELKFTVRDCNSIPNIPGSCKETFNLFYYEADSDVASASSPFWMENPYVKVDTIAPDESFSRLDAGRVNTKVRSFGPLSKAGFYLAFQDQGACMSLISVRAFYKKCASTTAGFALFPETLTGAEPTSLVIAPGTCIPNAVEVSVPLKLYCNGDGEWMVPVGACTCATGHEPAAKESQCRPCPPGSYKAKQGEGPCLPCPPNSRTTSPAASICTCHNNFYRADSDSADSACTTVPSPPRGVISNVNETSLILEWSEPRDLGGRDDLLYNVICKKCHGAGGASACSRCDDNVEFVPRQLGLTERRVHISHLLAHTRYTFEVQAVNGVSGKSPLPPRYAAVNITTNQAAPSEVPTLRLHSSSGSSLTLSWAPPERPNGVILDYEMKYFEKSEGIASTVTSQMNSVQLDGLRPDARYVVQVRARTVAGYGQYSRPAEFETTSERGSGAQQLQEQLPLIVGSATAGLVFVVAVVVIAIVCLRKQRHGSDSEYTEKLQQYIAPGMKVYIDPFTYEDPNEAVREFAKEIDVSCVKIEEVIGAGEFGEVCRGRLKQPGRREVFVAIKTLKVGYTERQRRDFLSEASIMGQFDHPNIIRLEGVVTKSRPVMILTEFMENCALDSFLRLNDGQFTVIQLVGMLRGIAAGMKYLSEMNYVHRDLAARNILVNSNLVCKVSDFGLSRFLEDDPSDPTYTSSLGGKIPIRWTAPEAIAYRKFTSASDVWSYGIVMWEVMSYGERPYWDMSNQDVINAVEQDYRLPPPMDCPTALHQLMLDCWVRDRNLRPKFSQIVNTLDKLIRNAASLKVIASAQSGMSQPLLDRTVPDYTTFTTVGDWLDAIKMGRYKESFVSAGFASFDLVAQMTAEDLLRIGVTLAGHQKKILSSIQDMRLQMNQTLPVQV

off-target kinases [3] = target: off-target kinases (Homo sapiens, UniProt Q9P1W9); conditions: PIM2, ZLYTE, ATP Km app
off-target kinases [4] = target: off-target kinases (Homo sapiens, UniProt P00533, DEL746-750); conditions: EGFR (ErbB1) d746-750; mutant y; LanthaScreen Binding
off-target kinases [5] = target: off-target kinases (Homo sapiens, UniProt O00311); conditions: CDC7/DBF4, LanthaScreen Binding
off-target kinases [6] = target: off-target kinases (Homo sapiens, UniProt P05129); conditions: PRKCG (PKC gamma); Cmpd1 1000 μM; ATP Km app; ZLYTE
off-target kinases [7] = target: off-target kinases (Homo sapiens, UniProt Q9UIK4); conditions: DAPK2, LanthaScreen Binding
off-target kinases [8] = target: off-target kinases (Homo sapiens, UniProt P10721, N822K); conditions: KIT N822K, LanthaScreen Binding
off-target kinases [9] = target: off-target kinases (Homo sapiens, UniProt Q92918); conditions: MAP4K1 (HPK1), LanthaScreen Binding
Chain of off-target kinases (Homo sapiens, UniProt Q92918) (Q92918 whole entry): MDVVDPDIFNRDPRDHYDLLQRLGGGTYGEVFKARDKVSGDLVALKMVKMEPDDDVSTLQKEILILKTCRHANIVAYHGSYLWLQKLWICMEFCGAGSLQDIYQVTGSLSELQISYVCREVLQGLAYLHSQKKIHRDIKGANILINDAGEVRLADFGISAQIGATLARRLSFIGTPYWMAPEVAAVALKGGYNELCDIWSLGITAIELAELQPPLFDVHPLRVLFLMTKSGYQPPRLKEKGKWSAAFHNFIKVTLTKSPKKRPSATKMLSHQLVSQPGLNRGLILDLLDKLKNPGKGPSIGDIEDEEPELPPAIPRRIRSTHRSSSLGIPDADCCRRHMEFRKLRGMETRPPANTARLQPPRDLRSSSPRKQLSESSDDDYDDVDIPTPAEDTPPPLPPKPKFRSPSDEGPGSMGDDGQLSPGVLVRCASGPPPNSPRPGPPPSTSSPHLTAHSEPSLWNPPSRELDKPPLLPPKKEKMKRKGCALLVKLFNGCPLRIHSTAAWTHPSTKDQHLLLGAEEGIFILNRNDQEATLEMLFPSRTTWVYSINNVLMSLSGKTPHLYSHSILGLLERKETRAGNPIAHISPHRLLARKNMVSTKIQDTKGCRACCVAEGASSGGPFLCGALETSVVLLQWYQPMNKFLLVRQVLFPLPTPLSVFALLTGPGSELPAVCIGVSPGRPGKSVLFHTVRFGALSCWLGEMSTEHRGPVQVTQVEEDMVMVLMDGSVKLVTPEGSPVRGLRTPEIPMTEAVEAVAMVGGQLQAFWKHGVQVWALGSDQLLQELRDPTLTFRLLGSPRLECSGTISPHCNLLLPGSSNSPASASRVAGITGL

Chain of off-target kinases (Homo sapiens, UniProt Q9UIK4) (Q9UIK4 whole entry): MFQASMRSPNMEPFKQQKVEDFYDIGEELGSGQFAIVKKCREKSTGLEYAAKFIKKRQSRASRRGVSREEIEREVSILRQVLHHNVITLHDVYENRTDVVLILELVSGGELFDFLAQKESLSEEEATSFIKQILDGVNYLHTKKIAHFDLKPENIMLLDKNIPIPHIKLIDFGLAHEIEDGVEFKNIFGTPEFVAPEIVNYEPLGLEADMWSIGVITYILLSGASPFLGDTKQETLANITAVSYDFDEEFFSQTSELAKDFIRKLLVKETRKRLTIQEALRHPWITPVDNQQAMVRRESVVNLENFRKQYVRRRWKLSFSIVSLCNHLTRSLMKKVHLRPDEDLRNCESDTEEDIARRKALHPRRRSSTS
Chain of off-target kinases (Homo sapiens, UniProt P10721, N822K) (P10721 26-976 N822K): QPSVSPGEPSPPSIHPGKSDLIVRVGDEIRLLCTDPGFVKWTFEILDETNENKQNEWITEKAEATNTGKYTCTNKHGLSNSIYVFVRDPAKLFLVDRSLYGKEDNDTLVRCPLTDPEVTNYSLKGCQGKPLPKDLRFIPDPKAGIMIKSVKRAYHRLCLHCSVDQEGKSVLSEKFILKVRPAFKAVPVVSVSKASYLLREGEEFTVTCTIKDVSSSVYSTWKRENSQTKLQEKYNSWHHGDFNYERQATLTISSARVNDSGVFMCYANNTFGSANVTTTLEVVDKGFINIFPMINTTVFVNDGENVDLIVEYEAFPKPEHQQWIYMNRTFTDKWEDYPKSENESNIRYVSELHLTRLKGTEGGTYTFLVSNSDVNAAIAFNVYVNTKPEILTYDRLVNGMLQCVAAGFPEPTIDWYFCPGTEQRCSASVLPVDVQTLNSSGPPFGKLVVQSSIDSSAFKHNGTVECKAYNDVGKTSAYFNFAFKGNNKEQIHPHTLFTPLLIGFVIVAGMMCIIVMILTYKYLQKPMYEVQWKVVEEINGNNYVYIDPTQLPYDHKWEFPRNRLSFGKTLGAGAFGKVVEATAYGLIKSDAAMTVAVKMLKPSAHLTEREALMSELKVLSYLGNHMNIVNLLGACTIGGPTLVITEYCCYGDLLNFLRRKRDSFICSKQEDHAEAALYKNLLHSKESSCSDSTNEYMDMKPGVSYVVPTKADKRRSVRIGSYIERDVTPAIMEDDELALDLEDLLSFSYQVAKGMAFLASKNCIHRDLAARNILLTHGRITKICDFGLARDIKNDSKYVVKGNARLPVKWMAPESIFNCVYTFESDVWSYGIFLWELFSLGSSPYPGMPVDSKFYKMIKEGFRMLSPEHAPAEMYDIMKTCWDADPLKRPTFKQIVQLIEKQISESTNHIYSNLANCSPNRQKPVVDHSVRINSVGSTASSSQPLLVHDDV
Chain of off-target kinases (Homo sapiens, UniProt O00311) (O00311 whole entry): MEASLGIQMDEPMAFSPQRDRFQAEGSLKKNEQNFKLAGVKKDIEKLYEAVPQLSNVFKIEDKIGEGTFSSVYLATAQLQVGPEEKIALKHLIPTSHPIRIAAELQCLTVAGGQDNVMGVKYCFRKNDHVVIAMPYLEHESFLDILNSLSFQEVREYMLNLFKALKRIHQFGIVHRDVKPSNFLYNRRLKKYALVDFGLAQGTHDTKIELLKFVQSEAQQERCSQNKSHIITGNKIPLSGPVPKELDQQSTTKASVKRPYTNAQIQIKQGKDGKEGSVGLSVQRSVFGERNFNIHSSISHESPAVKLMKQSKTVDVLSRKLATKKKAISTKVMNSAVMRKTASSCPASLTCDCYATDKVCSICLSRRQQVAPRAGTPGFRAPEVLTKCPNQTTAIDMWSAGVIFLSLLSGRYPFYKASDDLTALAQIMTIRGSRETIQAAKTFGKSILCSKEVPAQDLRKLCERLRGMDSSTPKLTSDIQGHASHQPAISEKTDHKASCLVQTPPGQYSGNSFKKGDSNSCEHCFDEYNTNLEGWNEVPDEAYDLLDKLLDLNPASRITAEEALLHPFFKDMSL
Chain of off-target kinases (Homo sapiens, UniProt Q9P1W9) (Q9P1W9 whole entry): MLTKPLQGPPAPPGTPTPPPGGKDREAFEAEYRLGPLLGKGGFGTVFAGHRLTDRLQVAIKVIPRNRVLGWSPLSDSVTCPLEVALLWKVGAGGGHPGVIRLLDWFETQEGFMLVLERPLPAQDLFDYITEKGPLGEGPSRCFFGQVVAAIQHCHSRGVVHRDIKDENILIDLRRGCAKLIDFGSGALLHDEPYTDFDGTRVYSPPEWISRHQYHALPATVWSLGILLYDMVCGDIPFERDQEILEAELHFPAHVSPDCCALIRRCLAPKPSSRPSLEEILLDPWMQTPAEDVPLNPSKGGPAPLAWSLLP
Chain of off-target kinases (Homo sapiens, UniProt P00533, DEL746-750) (P00533 with tags, fused parts or gaps DEL746-750): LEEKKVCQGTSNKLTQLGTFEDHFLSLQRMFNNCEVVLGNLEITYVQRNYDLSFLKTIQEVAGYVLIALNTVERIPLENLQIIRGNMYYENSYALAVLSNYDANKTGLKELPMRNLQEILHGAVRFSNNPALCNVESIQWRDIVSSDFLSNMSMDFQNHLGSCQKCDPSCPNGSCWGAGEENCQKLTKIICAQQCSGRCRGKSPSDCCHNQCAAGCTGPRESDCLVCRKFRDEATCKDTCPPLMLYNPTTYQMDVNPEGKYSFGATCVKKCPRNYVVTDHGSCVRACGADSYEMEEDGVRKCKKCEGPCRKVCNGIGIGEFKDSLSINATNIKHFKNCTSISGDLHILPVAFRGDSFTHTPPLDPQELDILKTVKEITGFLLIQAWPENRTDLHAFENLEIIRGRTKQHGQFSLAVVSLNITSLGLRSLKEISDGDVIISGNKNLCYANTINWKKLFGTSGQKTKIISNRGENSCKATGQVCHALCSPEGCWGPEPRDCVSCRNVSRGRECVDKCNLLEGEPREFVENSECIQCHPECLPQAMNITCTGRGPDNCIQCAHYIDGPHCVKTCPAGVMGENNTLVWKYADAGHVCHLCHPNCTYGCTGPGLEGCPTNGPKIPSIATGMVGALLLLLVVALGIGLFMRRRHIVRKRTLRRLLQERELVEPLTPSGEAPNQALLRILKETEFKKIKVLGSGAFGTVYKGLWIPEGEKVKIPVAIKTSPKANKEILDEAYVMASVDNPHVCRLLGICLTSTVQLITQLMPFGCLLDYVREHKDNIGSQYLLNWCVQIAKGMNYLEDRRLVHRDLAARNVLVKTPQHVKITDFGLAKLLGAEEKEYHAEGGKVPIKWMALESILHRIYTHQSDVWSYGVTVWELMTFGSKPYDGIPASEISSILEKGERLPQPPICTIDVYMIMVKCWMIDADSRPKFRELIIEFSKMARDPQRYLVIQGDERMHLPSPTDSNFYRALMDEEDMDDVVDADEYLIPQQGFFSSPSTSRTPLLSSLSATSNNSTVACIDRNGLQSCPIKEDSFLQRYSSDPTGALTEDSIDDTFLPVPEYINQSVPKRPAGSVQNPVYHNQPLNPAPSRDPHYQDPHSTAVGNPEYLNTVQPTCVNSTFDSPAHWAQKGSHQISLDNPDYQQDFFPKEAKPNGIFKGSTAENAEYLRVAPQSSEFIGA

N#Cc1cc(-c2ncnc(Nc3ccc(N4CCN(C5COC5)CC4)cc3)n2)ccc1OC1CCOCC1 [Compound 1, 5-(4-((4-(4-(oxetan-3-yl)piperazin-1-yl)phenyl)amino)-1,3,5-triazin-2-yl)-2-((tetrahydro-2H-pyran-4-yl)oxy)benzonitrile]
inhibition (off-target kinases [1]; read-out: % Inhibition 1): 16%
inhibition (off-target kinases [1]; read-out: % Inhibition 2): 18%
inhibition (off-target kinases [1]; read-out: % Inhibition Avg): 17%
inhibition (off-target kinases [2]; read-out: % Inhibition 1): 3%
inhibition (off-target kinases [2]; read-out: % Inhibition 2): 3%
inhibition (off-target kinases [2]; read-out: % Inhibition Avg): 3%
inhibition (off-target kinases [3]; read-out: % Inhibition 1): -1%
inhibition (off-target kinases [3]; read-out: % Inhibition 2): 7%
inhibition (off-target kinases [3]; read-out: % Inhibition Avg): 3%
inhibition (off-target kinases [4]): 14%
inhibition (off-target kinases [5]; read-out: % Inhibition 1): 100%
inhibition (off-target kinases [5]; read-out: % Inhibition 2): 97%
inhibition (off-target kinases [5]; read-out: % Inhibition Avg): 98%
% Inhibition 1 (off-target kinases [6]): −9%
% Inhibition 2 (off-target kinases [6]): −1%
% Inhibition Avg (off-target kinases [6]): −5%
inhibition (off-target kinases [7]; read-out: % Inhibition 1): 60%
inhibition (off-target kinases [7]; read-out: % Inhibition 2): 53%
inhibition (off-target kinases [7]; read-out: % Inhibition Avg): 56%
inhibition (off-target kinases [8]; read-out: % Inhibition 1): 66%
inhibition (off-target kinases [8]; read-out: % Inhibition 2): 67%
inhibition (off-target kinases [8]; read-out: % Inhibition Avg): 66%
inhibition (off-target kinases [9]; read-out: % Inhibition 1): 59%
inhibition (off-target kinases [9]; read-out: % Inhibition 2): 55%
inhibition (off-target kinases [9]; read-out: % Inhibition Avg): 57%
